Test results from ChEMBL document CHEMBL2375347, “Discovery of adamantane based highly potent HDAC inhibitors” (Bioorg Med Chem Lett, 2013).

Key:
U-251 = experiment: Cytotoxicity against human U251 cells by MTT assay; type: functional
HCT-116 = experiment: Cytotoxicity against human HCT116 cells by MTT assay; type: functional
[1] = Inhibition of mouse liver HDAC by fluorescence assay
NCI-H460 [2] = experiment: Cytotoxicity against human NCI-H460 cells by MTT assay; type: functional
Mus musculus = experiment: Toxicity in SCID mouse xenografted with human NCI-H460 cells assessed as loss in body weight at 5 mg/kg, ip qd for 21 days relative to control; type: organism-based; parameters: dose 5 mg/kg, route intraperitoneal; conditions: in vivo, 504 h
NCI-H460 [3] = experiment: Antitumor activity against human NCI-H460 cells xenografted in SCID mouse assessed as tumor growth inhibition at 5 mg/kg, ip qd for 21 days; type: functional; conditions: 504 h, route intraperitoneal, read-out: TGI
[4] = Toxicity in SCID mouse xenografted with human NCI-H460 cells; type: organism-based; conditions: in vivo

Row | SMILES | IC50 [1] [nM] | GI50 (U-251) [nM] | GI50 (HCT-116) [nM] | GI50 (NCI-H460 [2]) [nM] | Activity (Mus musculus) [%] | inhibition in vivo at 5 mg/kg (NCI-H460 [3]) [%] | MTD [4] [mg/kg]
1 | O=C(/C=C/c1ccc(CNC(=O)CC23CC4CC(CC(C4)C2)C3)cc1)NO | 1.8 | 1600 | 1100 | 1300 |  |  | 
2 | O=C(/C=C/c1ccc(CNCCC23CC4CC(CC(C4)C2)C3)cc1)NO | 0.9 | 1300 | 450 | 1100 |  |  | 
3 | O=C(/C=C/c1ccc(CNC2C3CC4CC(C3)CC2C4)cc1)NO (stereo unspecified) | 60 | 170 | 80 | 70 |  |  | 
4 | O=C(/C=C/c1ccc(CNC(=O)CC2C3CC4CC(C3)CC2C4)cc1)NO (stereo unspecified) | 8 | 260 | 500 | 400 |  |  | 
5 | O=C(/C=C/c1ccc(CNCCC2C3CC4CC(C3)CC2C4)cc1)NO (stereo unspecified) | 0.28 | 50 | 60 | 10 |  |  | 
6 | O=C(/C=C/c1ccc(CN2CC3CC4CC(C3)CC2C4)cc1)NO | 110 | 1700 | 1800 | 4900 |  |  | 
7 | O=C(/C=C/c1ccc(CNCC23CC4CC(CC2C4)C3)cc1)NO | 0.02 | 30 | 10 | 10 | < 10 | 45 | 7.5
8 | CC(NCc1ccc(/C=C/C(=O)NO)cc1)C12CC3CC(CC1C3)C2 (stereo unspecified) | 0.03 | 50 | 30 | 30 |  |  | 
9 | O=C(CCCCCCC(=O)Nc1ccccc1)NO [VORINOSTAT] |  | 2000 | 1000 | 1000 |  |  | 

More lines, main results first:

Row | IC50 [1] [nM] | SMILES | GI50 (U-251) [nM] | GI50 (HCT-116) [nM] | GI50 (NCI-H460 [2]) [nM] | Activity (Mus musculus) [%] | inhibition in vivo at 5 mg/kg (NCI-H460 [3]) [%] | MTD [4] [mg/kg]
10 | 40 | O=C(/C=C/c1ccc(CNC23CC4CC(CC(Cl)(C4)C2)C3)cc1)NO | 14000 | 11000 | 4000 |  |  | 
11 | 67 | O=C(/C=C/c1ccc(CNC(=O)C23CC4CC(CC(C4)C2)C3)cc1)NO | 170 | 100 | 100 |  |  | 
12 | 1.1 | O=C(/C=C/c1ccc(CNCC23CC4CC(CC(C4)C2)C3)cc1)NO | 800 | 500 | 300 |  |  | 
13 | 77 | O=C(/C=C/c1ccc(CNC(=O)C23CC4CC(CC(F)(C4)C2)C3)cc1)NO | 1900 | 500 | 500 |  |  | 
14 | 6 | O=C(/C=C/c1ccc(CNCC23CC4CC(CC(F)(C4)C2)C3)cc1)NO | 180 | 30 | 30 |  |  | 
15 | 25 | O=C(/C=C/c1ccc(CNC(=O)C23CC4CC(CC2C4)C3)cc1)NO | 600 | 380 | 350 |  |  | 
16 | 70 | O=C(/C=C/c1ccc(CNC23CC4CC(CC(C4)C2)C3)cc1)NO | 2700 | 500 | 2800 |  |  | 
17 | 460 | CCOC12CC3CC(CC(NCc4ccc(/C=C/C(=O)NO)cc4)(C3)C1)C2 | 2800 | 1000 | 6000 |  |  | 
18 | 260 | COC12CC3CC(CC(NCc4ccc(/C=C/C(=O)NO)cc4)(C3)C1)C2 | 7000 | 1600 | 7000 |  |  | 
19 | 250 | O=C(/C=C/c1ccc(CNC23CC4CC(CC(O)(C4)C2)C3)cc1)NO | 4200 | 3000 | 8000 |  |  | 
20 | 240 | O=C(/C=C/c1ccc(CNC23CC4CC(CC(CO)(C4)C2)C3)cc1)NO | 6000 | 2800 | 9500 |  |  | 
21 | 440 | O=C(/C=C/c1ccc(CNC23CC4CC(C2)CC(c2ccccc2)(C4)C3)cc1)NO | 3200 | 2200 | 5000 |  |  | 
